Results from PubChem BioAssay (NCI).
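Test compounds were applied to cells in 96-well plates for 48 hours at 5 doses. Definition used: TGI = concentration required for complete inhibition of growth.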

Columns and labels:
Assay in all cases: DTP human tumour cell line panel, 48 h
COLO 205 colon = tested on: COLO 205 colon
EKVX NSCLC = tested on: EKVX NSCLC
SK-OV-3 ovarian = tested on: SK-OV-3 ovarian
NCI-H522 lung = tested on: NCI-H522 lung
SF-268 CNS = tested on: SF-268 CNS
HT29 colon = tested on: HT29 colon
KM20L2 colon = tested on: KM20L2 colon
M19-MEL melanoma = tested on: M19-MEL melanoma
RXF-631 renal = tested on: RXF-631 renal
RXF 393 renal = tested on: RXF 393 renal
HCT-15 colon = tested on: HCT-15 colon
NCI-H23 lung = tested on: NCI-H23 lung
M14 melanoma = tested on: M14 melanoma
XF 498 CNS = tested on: XF 498 CNS
TK-10 renal = tested on: TK-10 renal
A498 renal = tested on: A498 renal
HCT-116 colon = tested on: HCT-116 colon
U251 CNS = tested on: U251 CNS
OVCAR-8 ovarian = tested on: OVCAR-8 ovarian
LXFL 529 NSCLC = tested on: LXFL 529 NSCLC
K-562 leukemia = tested on: K-562 leukemia
CCRF-CEM leukemia = tested on: CCRF-CEM leukemia
IGROV1 ovarian = tested on: IGROV1 ovarian
DMS 273 small cell lung = tested on: DMS 273 small cell lung
786-0 renal = tested on: 786-0 renal
SNB-75 CNS = tested on: SNB-75 CNS
MALME-3M melanoma = tested on: MALME-3M melanoma
UO-31 renal = tested on: UO-31 renal
SW-620 colon = tested on: SW-620 colon
NCI-H460 lung = tested on: NCI-H460 lung
SNB-78 CNS = tested on: SNB-78 CNS
SN12C renal = tested on: SN12C renal
UACC-257 melanoma = tested on: UACC-257 melanoma
SF-295 CNS = tested on: SF-295 CNS
SNB-19 CNS = tested on: SNB-19 CNS
HOP-92 NSCLC = tested on: HOP-92 NSCLC
SK-MEL-2 melanoma = tested on: SK-MEL-2 melanoma
SR leukemia = tested on: SR leukemia
NCI-H226 lung = tested on: NCI-H226 lung
KM12 colon = tested on: KM12 colon
OVCAR-4 ovarian = tested on: OVCAR-4 ovarian
UACC-62 melanoma = tested on: UACC-62 melanoma
HCC-2998 colon = tested on: HCC-2998 colon
SF-539 CNS = tested on: SF-539 CNS
HL-60(TB) leukemia = tested on: HL-60(TB) leukemia
HOP-62 NSCLC = tested on: HOP-62 NSCLC
MOLT-4 leukemia = tested on: MOLT-4 leukemia
RPMI-8226 leukemia = tested on: RPMI-8226 leukemia
DLD-1 colon = tested on: DLD-1 colon
OVCAR-3 ovarian = tested on: OVCAR-3 ovarian
CAKI-1 renal = tested on: CAKI-1 renal
HOP-18 NSCLC = tested on: HOP-18 NSCLC
ACHN renal = tested on: ACHN renal
A549 NSCLC = tested on: A549 NSCLC
OVCAR-5 ovarian = tested on: OVCAR-5 ovarian
LOX IMVI melanoma = tested on: LOX IMVI melanoma
SK-MEL-5 melanoma = tested on: SK-MEL-5 melanoma
BT-549 breast = tested on: BT-549 breast
SK-MEL-28 melanoma = tested on: SK-MEL-28 melanoma
HS 578T breast = tested on: HS 578T breast
MDA-N = tested on: MDA-N
DU-145 prostate = tested on: DU-145 prostate
PC-3 prostate = tested on: PC-3 prostate
MCF7 breast = tested on: MCF7 breast
MDA-MB-435 = tested on: MDA-MB-435
T-47D breast = tested on: T-47D breast
MDA-MB-231 breast = tested on: MDA-MB-231 breast
DMS 114 small cell lung = tested on: DMS 114 small cell lung
NCI/ADR-RES ovarian = tested on: NCI/ADR-RES ovarian

With `C[n+]1c2ccccc2c(CNC(CS)C(=O)O)c2ccccc21` (stereo not drawn) the TGI (COLO 205 colon) was 47.8 µM, the TGI (EKVX NSCLC) was over 100 µM and the TGI (SK-OV-3 ovarian) was 56.8 µM. The TGI (NCI-H522 lung) was 34.8 µM, the TGI (SF-268 CNS) was over 100 µM and the TGI (HT29 colon) was over 100 µM. The TGI (KM20L2 colon) was 82 µM, the TGI (M19-MEL melanoma) was 90.6 µM and the TGI (RXF-631 renal) was 70.4 µM. It also gave a TGI (RXF 393 renal) of 59.8 µM, a TGI (HCT-15 colon) of 55.1 µM and a TGI (NCI-H23 lung) of over 100 µM. For the same compound, the TGI (M14 melanoma) was over 100 µM, the TGI (XF 498 CNS) was 40.3 µM and the TGI (TK-10 renal) was over 100 µM. For the same compound, the TGI (A498 renal) was 53.8 µM, the TGI (HCT-116 colon) was 37.8 µM and the TGI (U251 CNS) was 66.7 µM. For the same compound, the TGI (OVCAR-8 ovarian) was 75 µM, the TGI (LXFL 529 NSCLC) was over 100 µM and the TGI (K-562 leukemia) was over 100 µM. The TGI (CCRF-CEM leukemia) was 62.4 µM, the TGI (IGROV1 ovarian) was 67.2 µM and the TGI (DMS 273 small cell lung) was 57.3 µM. The TGI (786-0 renal) was over 100 µM, the TGI (SNB-75 CNS) was 47.7 µM and the TGI (MALME-3M melanoma) was 92.1 µM. For the same compound, the TGI (UO-31 renal) was 58 µM, the TGI (SW-620 colon) was over 100 µM and the TGI (NCI-H460 lung) was 47.9 µM. It also gave a TGI (SNB-78 CNS) of over 100 µM, a TGI (SN12C renal) of over 100 µM and a TGI (UACC-257 melanoma) of over 100 µM. The TGI (SF-295 CNS) was 63.4 µM, the TGI (SNB-19 CNS) was over 100 µM and the TGI (HOP-92 NSCLC) was 52 µM. For the same compound, the TGI (SK-MEL-2 melanoma) was 76.8 µM, the TGI (SR leukemia) was 32.4 µM and the TGI (NCI-H226 lung) was 82.1 µM. It also gave a TGI (KM12 colon) of 57.5 µM, a TGI (OVCAR-4 ovarian) of over 100 µM and a TGI (UACC-62 melanoma) of 29.6 µM. For the same compound, the TGI (HCC-2998 colon) was over 100 µM, the TGI (SF-539 CNS) was 35.8 µM and the TGI (HL-60(TB) leukemia) was 43.4 µM. It also gave a TGI (HOP-62 NSCLC) of 39.1 µM, a TGI (MOLT-4 leukemia) of 36.7 µM and a TGI (RPMI-8226 leukemia) of 50.5 µM. It also gave a TGI (DLD-1 colon) of over 100 µM, a TGI (OVCAR-3 ovarian) of 62 µM and a TGI (CAKI-1 renal) of 70.5 µM. For the same compound, the TGI (HOP-18 NSCLC) was over 100 µM, the TGI (ACHN renal) was over 100 µM and the TGI (A549 NSCLC) was 83.9 µM. For the same compound, the TGI (OVCAR-5 ovarian) was over 100 µM.
With `Cc1nc2ccc(N)cc2[nH]c1=O` the TGI (COLO 205 colon) was over 100 µM, the TGI (EKVX NSCLC) was over 100 µM and the TGI (SK-OV-3 ovarian) was over 100 µM. It also gave a TGI (KM20L2 colon) of over 100 µM, a TGI (M19-MEL melanoma) of over 100 µM and a TGI (RXF-631 renal) of over 100 µM. It also gave a TGI (HCT-15 colon) of over 100 µM, a TGI (M14 melanoma) of over 100 µM and a TGI (TK-10 renal) of over 100 µM. The TGI (A498 renal) was over 100 µM, the TGI (HCT-116 colon) was over 100 µM and the TGI (U251 CNS) was over 100 µM. It also gave a TGI (OVCAR-8 ovarian) of over 100 µM, a TGI (LXFL 529 NSCLC) of over 100 µM and a TGI (K-562 leukemia) of over 100 µM. The TGI (CCRF-CEM leukemia) was over 100 µM, the TGI (IGROV1 ovarian) was over 100 µM and the TGI (DMS 273 small cell lung) was over 100 µM. The TGI (786-0 renal) was over 100 µM, the TGI (MALME-3M melanoma) was over 100 µM and the TGI (UO-31 renal) was over 100 µM. It also gave a TGI (LOX IMVI melanoma) of over 100 µM, a TGI (SW-620 colon) of over 100 µM and a TGI (NCI-H460 lung) of over 100 µM. For the same compound, the TGI (SNB-78 CNS) was over 100 µM, the TGI (UACC-257 melanoma) was over 100 µM and the TGI (SF-295 CNS) was over 100 µM. It also gave a TGI (SNB-19 CNS) of over 100 µM, a TGI (HOP-92 NSCLC) of over 100 µM and a TGI (SK-MEL-2 melanoma) of over 100 µM. For the same compound, the TGI (KM12 colon) was over 100 µM, the TGI (OVCAR-4 ovarian) was over 100 µM and the TGI (UACC-62 melanoma) was over 100 µM. The TGI (HCC-2998 colon) was over 100 µM, the TGI (SF-539 CNS) was over 100 µM and the TGI (HL-60(TB) leukemia) was over 100 µM. The TGI (HOP-62 NSCLC) was over 100 µM, the TGI (MOLT-4 leukemia) was over 100 µM and the TGI (RPMI-8226 leukemia) was over 100 µM. For the same compound, the TGI (DLD-1 colon) was over 100 µM, the TGI (OVCAR-3 ovarian) was over 100 µM and the TGI (CAKI-1 renal) was over 100 µM. It also gave a TGI (ACHN renal) of over 100 µM, a TGI (SK-MEL-5 melanoma) of over 100 µM and a TGI (A549 NSCLC) of over 100 µM. For the same compound, the TGI (OVCAR-5 ovarian) was over 100 µM.
In the case of `COc1ccc(/C=C2\CCC(Cc3ccccc3)(CN(C)C)C2=O)cc1` (stereo not drawn), the TGI (COLO 205 colon) is reported as over 74.8 µM, the TGI (EKVX NSCLC) is reported as over 100 µM and the TGI (SK-OV-3 ovarian) is reported as over 100 µM. For the same compound, the TGI (NCI-H522 lung) was over 71.9 µM, the TGI (SF-268 CNS) was over 100 µM and the TGI (HT29 colon) was over 87.8 µM. It also gave a TGI (KM20L2 colon) of 59.6 µM, a TGI (M19-MEL melanoma) of 70.7 µM and a TGI (RXF 393 renal) of over 72.9 µM. It also gave a TGI (BT-549 breast) of over 100 µM, a TGI (HCT-15 colon) of over 70.7 µM and a TGI (NCI-H23 lung) of over 100 µM. The TGI (M14 melanoma) was 66.2 µM, the TGI (TK-10 renal) was over 100 µM and the TGI (A498 renal) was over 100 µM. It also gave a TGI (HCT-116 colon) of over 100 µM, a TGI (U251 CNS) of over 100 µM and a TGI (SK-MEL-28 melanoma) of over 100 µM. It also gave a TGI (OVCAR-8 ovarian) of over 100 µM, a TGI (HS 578T breast) of over 100 µM and a TGI (LXFL 529 NSCLC) of over 100 µM. For the same compound, the TGI (MDA-N) was over 100 µM, the TGI (K-562 leukemia) was 78 µM and the TGI (CCRF-CEM leukemia) was 72.3 µM. It also gave a TGI (DU-145 prostate) of over 100 µM, a TGI (IGROV1 ovarian) of over 100 µM and a TGI (PC-3 prostate) of over 100 µM. It also gave a TGI (DMS 273 small cell lung) of 32.5 µM, a TGI (786-0 renal) of over 100 µM and a TGI (SNB-75 CNS) of over 100 µM. For the same compound, the TGI (MALME-3M melanoma) was over 100 µM, the TGI (UO-31 renal) was over 100 µM and the TGI (LOX IMVI melanoma) was 57.5 µM. For the same compound, the TGI (SW-620 colon) was over 73.3 µM, the TGI (NCI-H460 lung) was over 100 µM and the TGI (SNB-78 CNS) was over 100 µM. The TGI (SN12C renal) was over 100 µM, the TGI (MCF7 breast) was over 100 µM and the TGI (MDA-MB-435) was over 100 µM. It also gave a TGI (UACC-257 melanoma) of 66.2 µM, a TGI (SF-295 CNS) of over 100 µM and a TGI (SNB-19 CNS) of over 100 µM. The TGI (HOP-92 NSCLC) was over 100 µM, the TGI (T-47D breast) was over 100 µM and the TGI (SK-MEL-2 melanoma) was over 100 µM. For the same compound, the TGI (SR leukemia) was 54 µM, the TGI (NCI-H226 lung) was over 96.3 µM and the TGI (KM12 colon) was over 100 µM. The TGI (OVCAR-4 ovarian) was over 100 µM, the TGI (UACC-62 melanoma) was over 76.9 µM and the TGI (HCC-2998 colon) was over 100 µM. For the same compound, the TGI (MDA-MB-231 breast) was over 100 µM, the TGI (SF-539 CNS) was over 100 µM and the TGI (HL-60(TB) leukemia) was 55.3 µM. The TGI (DMS 114 small cell lung) was 48.6 µM, the TGI (HOP-62 NSCLC) was over 100 µM and the TGI (MOLT-4 leukemia) was over 81.2 µM. For the same compound, the TGI (RPMI-8226 leukemia) was 62.9 µM, the TGI (DLD-1 colon) was over 100 µM and the TGI (OVCAR-3 ovarian) was over 100 µM. For the same compound, the TGI (CAKI-1 renal) was over 100 µM, the TGI (NCI/ADR-RES ovarian) was over 100 µM and the TGI (HOP-18 NSCLC) was over 100 µM. The TGI (ACHN renal) was over 100 µM, the TGI (SK-MEL-5 melanoma) was 44.8 µM and the TGI (A549 NSCLC) was over 100 µM. The TGI (OVCAR-5 ovarian) was over 100 µM.
